Source: ChEMBL document CHEMBL1955725, “Structure-guided lead optimization of triazolopyrimidine-ring substituents identifies potent Plasmodium falciparum dihydroorotate dehydrogenase inhibitors with clinical candidate potential” (J Med Chem, 2011)
In brackets after ≈: the same amount, converted by molar mass.

Tests used:
[1] = Terminal elimination half life in Swiss outbred mouse at 2 mg/kg, po; assay type: ADME, organism-based; design: dose 2 mg/kg, route oral; conditions: in vivo, read-out: beta t1/2 (converted)
[2] = system: Plasmodium falciparum; experiment: Antimalarial activity against Plasmodium falciparum 3D7 by [3H]hypoxanthine incorporation assay in presence of human serum; assay type: functional, organism-based
[3] = system: Plasmodium falciparum; experiment: Antimalarial activity against Plasmodium falciparum 3D7 0087/N9 infected in human RBC engrafted NOD-SCID IL-2Rgamma-null mouse assessed as reduction in parasitemia administered orally 3 days post infection qd for 4 days measured 24 hrs after final dose by FACS analysis; assay type: functional; conditions: 3D7 0087/N9, po
[4] = target: T1, Dihydroorotate dehydrogenase (Plasmodium falciparum, UniProt Q54A96)
T1 sequence (Q54A96 whole entry): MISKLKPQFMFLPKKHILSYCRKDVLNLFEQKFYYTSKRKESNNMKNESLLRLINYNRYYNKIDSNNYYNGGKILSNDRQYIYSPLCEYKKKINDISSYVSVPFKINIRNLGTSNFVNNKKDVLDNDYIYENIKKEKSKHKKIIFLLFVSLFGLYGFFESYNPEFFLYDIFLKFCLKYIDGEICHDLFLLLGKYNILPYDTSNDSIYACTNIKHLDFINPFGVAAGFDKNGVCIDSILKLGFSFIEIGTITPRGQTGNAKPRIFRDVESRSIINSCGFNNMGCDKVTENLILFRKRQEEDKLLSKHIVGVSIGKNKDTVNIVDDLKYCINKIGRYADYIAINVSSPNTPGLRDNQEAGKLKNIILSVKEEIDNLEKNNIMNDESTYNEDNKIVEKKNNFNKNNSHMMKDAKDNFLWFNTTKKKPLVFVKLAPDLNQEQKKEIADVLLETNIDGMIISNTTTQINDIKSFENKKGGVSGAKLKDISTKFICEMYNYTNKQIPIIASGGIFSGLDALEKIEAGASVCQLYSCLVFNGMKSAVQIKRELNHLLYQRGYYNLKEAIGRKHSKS
Description: Inhibition of Plasmodium falciparum C-terminal hexa-His tagged DHODH expressed in Escherichia coli by DCIP reduction assay

[5] = system: Plasmodium falciparum; experiment: Antimalarial activity against drug-sensitive Plasmodium falciparum HB3 by [3H]hypoxanthine incorporation assay in presence of human serum; assay type: functional, organism-based
[6] = Volume of distribution in Sprague-Dawley rat at 4.5 mg/kg, iv; assay type: ADME, organism-based; design: dose 4.5 mg/kg, route intravenous; conditions: in vivo
[7] = Clearance in Sprague-Dawley rat at 4.5 mg/kg, iv; assay type: ADME, organism-based; design: dose 4.5 mg/kg, route intravenous; conditions: in vivo
[8] = AUC (0 to infinity) in Sprague-Dawley rat at 21.2 mg/kg, po; assay type: ADME, organism-based; design: time infinity, dose 21.2 mg/kg, route oral; conditions: plasma
[9] = AUC (0 to infinity) in Sprague-Dawley rat at 2 mg/kg, po; assay type: ADME, organism-based; design: time infinity, dose 2 mg/kg, route oral; conditions: plasma
[10] = system: Liver; experiment: Intrinsic clearance in mouse liver microsomes; assay type: ADME, Microsome
[11] = in vivo; conditions: Sprague-Dawley, rat, po, 2 mg/kg
[12] = Terminal elimination half life in Sprague-Dawley rat at 1 mg/kg, iv; assay type: ADME, organism-based; design: dose 1 mg/kg, route intravenous; conditions: in vivo, read-out: beta t1/2 (converted)
[13] = system: Liver microsomes; experiment: Intrinsic clearance in human liver microsomes; assay type: ADME, Microsome
[14] = Terminal elimination half life in Sprague-Dawley rat at 4.5 mg/kg, iv; assay type: ADME, organism-based; design: dose 4.5 mg/kg, route intravenous; conditions: in vivo, read-out: beta t1/2 (converted)
[15] = Oral bioavailability in Sprague-Dawley rat at 2 mg/kg; assay type: ADME, organism-based; conditions: in vivo
[16] = system: Mus musculus; experiment: AUC (0 to 10 hrs) in human RBC engrafted NOD-SCID IL-2Rgamma-null mouse at 5.7 mg/kg, po; assay type: ADME, organism-based, Plasma; design: time < 10 hr, dose 5.7 mg/kg, route oral; conditions: in vivo
[17] = in vivo; conditions: NOD-SCID IL-2Rgamma-null, mouse, po, 5.7 mg/kg
[18] = system: Mus musculus; experiment: Time plasma concentration remained above 1 uM in Swiss outbred mouse plasma at 10 mg/kg, po; assay type: ADME, organism-based; design: dose 10 mg/kg, route oral; conditions: in vivo
[19] = in vivo; conditions: Swiss outbred, mouse, po, 10 mg/kg
[20] = Terminal elimination half life in Swiss outbred mouse at 0.4 mg/kg, po; assay type: ADME, organism-based; design: dose 0.4 mg/kg, route oral; conditions: in vivo, read-out: beta t1/2 (converted)
[21] = Inhibition of Plasmodium berghei C-terminal hexa-His tagged DHODH expressed in Escherichia coli by DCIP reduction assay
[22] = in vivo; conditions: Swiss outbred, mouse, po, 50 mg/kg
[23] = Terminal elimination half life in Swiss outbred mouse at 10 mg/kg, po; assay type: ADME, organism-based; design: dose 10 mg/kg, route oral; conditions: in vivo, read-out: beta t1/2 (converted)
[24] = Volume of distribution in Sprague-Dawley rat at 1 mg/kg, iv; assay type: ADME, organism-based; design: dose 1 mg/kg, route intravenous; conditions: in vivo
[25] = Aqueous solubility of the compound at pH 6.5; assay type: physicochemical
[26] = system: HepG2; experiment: Cytotoxicity against human HepG2 cells; assay type: cell-based
[27] = Cmax in Swiss outbred mouse at 0.4 mg/kg, po; assay type: ADME, organism-based; design: dose 0.4 mg/kg, route oral; conditions: in vivo
[28] = Terminal elimination half life in Sprague-Dawley rat at 2 mg/kg, po; assay type: ADME, organism-based; design: dose 2 mg/kg, route oral; conditions: in vivo, read-out: beta t1/2 (converted)
[29] = Plasma protein binding in Swiss outbred mouse by ultracentrifugation; conditions: read-out: PPB (converted)
[30] = AUC (0 to infinity) in Swiss outbred mouse plasma at 10 mg/kg, po; assay type: ADME, organism-based; design: time infinity, dose 10 mg/kg, route oral
[31] = system: Plasma; experiment: Plasma protein binding in human by chromatographic method; assay type: ADME, cell-free
[32] = in vivo; conditions: Swiss outbred, mouse, po, 2 mg/kg
[33] = system: Mus musculus; experiment: Time plasma concentration remained above 1 uM in Swiss outbred mouse plasma at 2 mg/kg, po; assay type: ADME, organism-based; design: dose 2 mg/kg, route oral; conditions: in vivo
[34] = AUC (0 to infinity) in Swiss outbred mouse plasma at 2 mg/kg, po; assay type: ADME, organism-based; design: time infinity, dose 2 mg/kg, route oral
[35] = Clearance in Sprague-Dawley rat at 1 mg/kg, iv; assay type: ADME, organism-based; design: dose 1 mg/kg, route intravenous; conditions: in vivo
[36] = system: Mus musculus; experiment: Time plasma concentration remained above 1 uM in Swiss outbred mouse plasma at 50 mg/kg, po; assay type: ADME, organism-based; design: dose 50 mg/kg, route oral; conditions: in vivo
[37] = system: Plasmodium falciparum; experiment: Antimalarial activity against atovoquone-resistant Plasmodium falciparum TM90C2B by [3H]hypoxanthine incorporation assay in presence of human serum; assay type: functional, organism-based
[38] = system: Plasmodium falciparum; experiment: Antimalarial activity against chloroquine-resistant Plasmodium falciparum Dd2 by [3H]hypoxanthine incorporation assay in presence of human serum; assay type: functional, organism-based
[39] = system: Mus musculus; experiment: AUC (0 to 48 hrs) in Swiss outbred mouse plasma at 50 mg/kg, po; assay type: ADME, organism-based; design: time < 48 hr, dose 50 mg/kg, route oral; conditions: in vivo
[40] = Lipophilicity, log D of the compound at pH 7.4; assay type: physicochemical; conditions: buffer
[41] = Cmax in human RBC engrafted NOD-SCID IL-2Rgamma-null mouse at 5.7 mg/kg, po; assay type: ADME, organism-based; design: dose 5.7 mg/kg, route oral; conditions: in vivo
[42] = system: Mus musculus; experiment: Time plasma concentration remained above 1 uM in Swiss outbred mouse plasma at 0.4 mg/kg, po; assay type: ADME, organism-based; design: dose 0.4 mg/kg, route oral; conditions: in vivo
[43] = system: Mus musculus; experiment: AUC (0 to 10 hrs) in human RBC engrafted NOD-SCID IL-2Rgamma-null mouse infected with Plasmodium falciparum 3D7 0087/N9 at 5.7 mg/kg, po; assay type: ADME, organism-based, Plasma; design: time < 10 hr, dose 5.7 mg/kg, route oral; conditions: in vivo
[44] = target: Dihydroorotate dehydrogenase (quinone), mitochondrial (Homo sapiens, UniProt Q02127)
Description: Inhibition of human C-terminal hexa-His tagged DHODH expressed in Escherichia coli by DCIP reduction assay

[45] = Oral bioavailability in Sprague-Dawley rat at 21.2 mg/kg; assay type: ADME, organism-based; conditions: in vivo
[46] = in vivo; conditions: NOD-SCID IL-2Rgamma-null, mouse, po, 5.7 mg/kg; remark: listed apart in the source
[47] = system: Plasmodium falciparum; experiment: Antimalarial activity against Plasmodium falciparum 3D7 by [3H]hypoxanthine incorporation assay in presence of albumax; assay type: functional, organism-based

Sequence of Dihydroorotate dehydrogenase (quinone), mitochondrial (Q02127 whole entry): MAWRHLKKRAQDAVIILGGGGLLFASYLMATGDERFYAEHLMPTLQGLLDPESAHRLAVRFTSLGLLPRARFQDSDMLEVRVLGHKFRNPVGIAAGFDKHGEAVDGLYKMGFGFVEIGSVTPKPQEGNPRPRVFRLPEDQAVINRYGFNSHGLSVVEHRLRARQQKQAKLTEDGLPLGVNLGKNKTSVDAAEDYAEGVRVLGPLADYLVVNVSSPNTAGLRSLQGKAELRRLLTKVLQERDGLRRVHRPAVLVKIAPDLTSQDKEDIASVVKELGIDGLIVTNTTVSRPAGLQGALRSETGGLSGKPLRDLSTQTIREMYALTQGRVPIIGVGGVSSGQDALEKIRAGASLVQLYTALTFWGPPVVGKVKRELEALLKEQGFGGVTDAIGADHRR

Cc1cc(Nc2ccc(C(F)(F)F)cc2)n2nc(C(C)(F)F)nc2n1
half-life [1]: 1.9 h | EC50 [2]: 10 nM | ED50 [3]: 9.6 mg/kg | ED90 [3]: 26 mg/kg | IC50 [4]: 38 nM | EC50 [5]: 7.9 nM | Vd [6]: 2.9 L/kg | clearance [7]: 12.6 mL/min/kg | AUC(0-inf) [8]: 342 µM·h | AUC(0-inf) [9]: 3.88 µM·h | Intrinsic clearance [10]: 10.1 µL/min/mg | Tmax [11]: 1 h | half-life [12]: 6.1 h | Intrinsic clearance [13]: < 5 µL/min/mg | half-life [14]: 3.8 h | bioavailability [15]: 97% | AUC [16]: 2521 µM·min | Tmax [17]: 2.7 h | Time [18]: 14 h | Tmax [19]: 4 h | half-life [20]: 2.1 h | IC50 [21]: 2400 nM | Tmax [22]: 2 h | half-life [23]: 1.6 h | Vd [24]: 3.3 L/kg | solubility [25]: 70 µM (≈ 25 µg/mL) | EC50 [26]: > 50000 nM | Cmax [27]: 0.2 µM | half-life [28]: 6 h | fraction unbound [29]: 0.026 | AUC(0-inf) [30]: 70.1 µM·h | PPB [31]: 90.4% | Tmax [32]: 1 h | Time [33]: 6 h | AUC(0-inf) [34]: 9.48 µM·h | clearance [35]: 23.2 mL/min/kg | Time [36]: 14 h | EC50 [37]: 4.6 nM | EC50 [38]: 13 nM | AUC [39]: 14815 µM·min | logD [40]: 3.3 | Cmax [41]: 6.3 µM | Time [42]: 0 h | AUC [43]: 2740 µM·min | IC50 [44]: > 100000 nM | bioavailability [45]: > 100% | Tmax [46]: 1.7 h | EC50 [47]: 6.2 nM
